In PubChem BioAssay (NCI):
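96-well plates; 48 h exposure; 5 concentrations. Endpoints by linear interpolation between flanking doses. Not reached: highest tested concentration assigned. TGI is the concentration that stops growth completely.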

Tests used:
Experiment in all cases: NCI tumour cell line growth inhibition, 48 h
SNB-78 CNS = system: SNB-78 CNS
DMS 114 small cell lung = system: DMS 114 small cell lung
DMS 273 small cell lung = system: DMS 273 small cell lung
RXF-631 renal = system: RXF-631 renal
KM20L2 colon = system: KM20L2 colon
XF 498 CNS = system: XF 498 CNS
P388 leukemia = system: P388 leukemia
SN12K1 renal = system: SN12K1 renal
P388/ADR leukemia = system: P388/ADR leukemia

Structure (SMILES)	TGI (SNB-78 CNS)	TGI (DMS 114 small cell lung)	TGI (DMS 273 small cell lung)	TGI (RXF-631 renal)	TGI (KM20L2 colon)	TGI (XF 498 CNS)	TGI (P388 leukemia)	TGI (SN12K1 renal)	TGI (P388/ADR leukemia)
CCN(CC)CCCC(C)NC(=O)c1ccc2c(c1)C(=O)c1ccccc1C2=O (stereo unspecified)	47.4 µM	20 µM	46.2 µM	65.5 µM	51.9 µM	21.3 µM	–	–	–
CC(C)C(=O)/C=C/c1ccc(Cl)c(Cl)c1	> 100 µM	42.3 µM	–	–	37.8 µM	25.1 µM	–	–	–
CCCCCCC(C)OC(=O)/C=C(\CC(=O)OC(C)CCCCCC)C(=O)OC(C)CCCCCC (stereo unspecified)	> 100 µM	> 100 µM	> 100 µM	–	> 100 µM	–	–	–	–
O=C1c2ccccc2C(=O)c2c(O)ccc(O)c21	> 100 µM	> 100 µM	> 100 µM	–	–	–	–	–	–
CC1C(=O)O[C@H]2C1CC[C@@]1(C)[C@H](O)CC[C@@]13C[C@]2(O)OO3 (stereo partly specified)	–	> 100 µM	> 100 µM	–	> 100 µM	–	–	–	–
CCOP(=O)(OCC)C1=NC=CC=CC1n1c(-c2ccccc2)nn(CC)c1=O (stereo unspecified)	–	> 100 µM	> 100 µM	> 100 µM	> 100 µM	–	–	–	–
CS(=O)(=O)OCCCOS(C)(=O)=O	> 100 µM	> 100 µM	> 100 µM	–	> 100 µM	> 100 µM	–	–	–
C=C1C(=O)O[C@@H]2[C@H](O)[C@@H](C)[C@@H]3C=CC(=O)[C@@]3(C)[C@H](OC(=O)C=C(C)C)[C@H]12	–	6.57 µM	3.24 µM	–	5.12 µM	2.63 µM	0.483 µM	1.75 µM	0.272 µM
